Test results from PMC7902086 (Toxicology letters, 2019).
“And” between values parts separate entries of the source, which are not always exact repeats. Equal values may be shown once.

What was measured:
CYP3A4/5 [1] = test: CYP450 inhibition assay, testosterone 6β-hydroxylase in human liver microsomes; assay type: in vitro ADME; details: read-out: IC50, CYP3A4/5 Testosterone 6β-hydroxylase; human liver microsomes 0.1 mg/mL; mean of triplicate
CYP2C19 = CYP2C19 (Homo sapiens, UniProt P33261); test: CYP450 inhibition assay, S-mephenytoin 4′-hydroxylase in human liver microsomes; assay type: in vitro ADME; details: read-out: IC50, CYP2C19 S-Mephenytoin 4′-hydroxylase; human liver microsomes 0.1 mg/mL; mean of triplicate
Sequence of CYP2C19 (P33261 whole entry): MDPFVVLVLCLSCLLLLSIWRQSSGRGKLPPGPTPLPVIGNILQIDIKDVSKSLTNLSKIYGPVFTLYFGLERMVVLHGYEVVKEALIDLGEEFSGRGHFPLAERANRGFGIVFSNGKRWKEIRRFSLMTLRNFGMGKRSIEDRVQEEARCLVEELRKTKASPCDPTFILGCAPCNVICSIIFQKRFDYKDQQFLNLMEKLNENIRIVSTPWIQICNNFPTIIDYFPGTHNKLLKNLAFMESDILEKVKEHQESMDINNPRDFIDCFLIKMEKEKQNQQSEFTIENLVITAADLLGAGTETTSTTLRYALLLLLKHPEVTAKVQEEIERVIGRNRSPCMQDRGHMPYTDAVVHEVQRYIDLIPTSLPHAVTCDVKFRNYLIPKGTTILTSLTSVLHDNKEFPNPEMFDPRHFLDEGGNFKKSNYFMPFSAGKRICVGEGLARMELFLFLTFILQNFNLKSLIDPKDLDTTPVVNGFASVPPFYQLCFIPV

CYP3A4/5 [2] = test: CYP450 inhibition assay, midazolam 1′-hydroxylase in human liver microsomes; assay type: in vitro ADME; details: read-out: IC50, CYP3A4/5 Midazolam 1′-hydroxylase; human liver microsomes 0.1 mg/mL; mean of triplicate
CYP3A4 = details: in humans; ref Kamble et al., 2019; cited from earlier work
μ-opioid receptors = details: ref Boyer et al., 2008; Kruegel et al., 2016; cited from earlier work
[3] = deceased kratom users in the United States, autopsies; ref Gershman et al., 2019; cited from earlier work
CYP2D6 = CYP2D6 (Homo sapiens, UniProt P10635); details: known CYP2D6 substrates; ref Obach et al., 2006; cited from earlier work
Sequence of CYP2D6 (P10635 whole entry): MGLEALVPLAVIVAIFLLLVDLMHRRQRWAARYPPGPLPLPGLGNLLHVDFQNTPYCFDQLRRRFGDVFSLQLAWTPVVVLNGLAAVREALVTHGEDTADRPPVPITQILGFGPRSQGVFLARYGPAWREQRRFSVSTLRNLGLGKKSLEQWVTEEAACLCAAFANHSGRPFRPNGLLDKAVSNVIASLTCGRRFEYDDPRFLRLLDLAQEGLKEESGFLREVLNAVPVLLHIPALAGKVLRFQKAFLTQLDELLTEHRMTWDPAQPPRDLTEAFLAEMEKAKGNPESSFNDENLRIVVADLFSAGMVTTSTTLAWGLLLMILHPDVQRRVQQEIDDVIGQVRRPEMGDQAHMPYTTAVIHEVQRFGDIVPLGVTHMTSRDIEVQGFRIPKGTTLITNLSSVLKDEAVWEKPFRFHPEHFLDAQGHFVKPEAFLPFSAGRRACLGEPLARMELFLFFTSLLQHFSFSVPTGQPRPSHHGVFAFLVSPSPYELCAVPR

## CC[C@H]1CN2CCc3c([nH]c4cccc(OC)c34)[C@@H]2C[C@@H]1/C(=C\OC)C(=O)OC [SPG, speciogynine]
CYP3A4/5 [1]
  IC50: > 45 µM
CYP2C19
  IC50: 19.5 µM
CYP3A4/5 [2]
  IC50: 13.5 µM

## C=C[C@H]1CN2CCc3c([nH]c4cccc(OC)c34)[C@@H]2C[C@@H]1/C(=C\OC)C(=O)OC [PAY, paynantheine]
CYP3A4/5 [1]
  IC50: > 45 µM
CYP2C19
  IC50: 38.4 µM
CYP3A4/5 [2]
  IC50: 7.9 µM

## mitragynine [MTG]
CYP3A4
  enzyme predominantly responsible for metabolism: predominantly metabolized by CYP3A4
μ-opioid receptors
  activity at μ-opioid receptors: partial agonists
[3]
  serum concentration levels: 16 to 4800 ng/mL and 0.041–12.05 μM

## COc1ccc2c(c1)[C@]13CCCC[C@@H]1[C@H](C2)N(C)CC3 [dextromethorphan]
CYP2D6
  fm, CYP2D6: 1

## CC[C@@H]1CN2CC[C@@]3(O)C(=Nc4cccc(OC)c43)[C@@H]2C[C@@H]1/C(=C\OC)C(=O)OC [7HMG, 7-hydroxymitragynine]
CYP3A4/5 [1]
  IC50: > 45 µM
CYP2C19
  IC50: 27.7 µM
μ-opioid receptors
  activity at μ-opioid receptors: partial agonists
CYP3A4/5 [2]
  IC50: > 45 µM

## CC[C@@H]1CN2CCc3c([nH]c4cccc(OC)c34)[C@H]2C[C@@H]1/C(=C\OC)C(=O)OC [SPC, speciocilliatine]
CYP3A4/5 [1]
  IC50: > 45 µM
CYP2C19
  IC50: 8 µM
CYP3A4/5 [2]
  IC50: 26.4 µM

## COCCc1ccc(OCC(O)CNC(C)C)cc1 (stereo not shown) [metoprolol]
CYP2D6
  fm, CYP2D6: 0.8

## CNCCCN1c2ccccc2CCc2ccccc21 [desipramine]
CYP2D6
  fm, CYP2D6: 0.9
